In patent publication US9415021B2, “Synthesis of oxygen carrying, turbulence resistant, high density submicron particulates” (Nanoshell Company, LLC, priority 2009, dated 2016):

Assay: Oxygen content of suspensions by glucose assay solution (glucose oxidase/peroxidase, absorbance at 540 nm) and Equation 1
Assay type: physicochemical
Conditions: 37° C., 1 AP
Description: To confirm the oxygen carrying capability of the single coated nanoemulsion particle AOCs, the amount of dissolved oxygen in water was measured. The linear dependence of the absorbance at 540 nm in response to the concentration of glucose was first confirmed at 37° C. in the presence of sufficient amount of oxygen, and then the limiting amount of oxygen concentration was estimated in the presence of sufficient amount of glucose. […] The DI water was added to make the total volume 1.41 μl and the absorbance determined at 540 nm. The absorbance was plotted against the molar concentration of dissolved oxygen assuming that the air at 1 AP and 37° C., water contains 215.6 μmol/L of O2. The experimentally determined oxygen content in the coated AOC suspension is a composite of oxygen content in water and in the perfluorocarbon. Quantitatively, CO2 total=CO2 PFC VPFC+CO2 water Vwater=CO2 PFC VPFC+CO2 water(1−VPFC) (Equation 1) where, CO2 total is the total oxygen concentration of the sample, and CO2 PFC and CO2 water are the concentrations of oxygen in PFC and water at a given partial pressure of oxygen and temperature, and similarly V's are the volume fractions of PFC and water. […] The reaction was allowed to proceed for 30 minutes at 37° C. and the absorption was measured at 540 nm in order to estimate the amount of oxygen present in the uncoated and coated products.

## FC(F)(F)C(F)(F)C(F)(F)C(F)(F)C(F)(F)C(F)(F)C(F)(F)C(F)(F)Br [emulsified PFOB, perfluorooctylbromide]
  oxygen content, estimated CSAT: 3,640 μmol/L
